The source of these data is patent US20250177357A1, “METHODS FOR TREATING HYPERTROPHIC CARDIOMYOPATHY” (priority 2021, published 2025).

One series concerns healthy adults. In words: Phase 1 ECG (QTcF), vital signs and clinical laboratory safety. Format: in vivo, human. How it is done: Safety and tolerability. Safety was assessed by the incidence of adverse events (AEs) and by incidence of reduced LVEF. Treatment-emergent AEs (TEAE) were defined as AEs that began or increased after study drug administration. All AEs were coded using the Medical Dictionary for Regulatory Activities version 21.1 and graded using the National Cancer Institute Common Terminology Criteria for AEs (version 4.03) 5-point severity scale. Each AE was judged as either related or unrelated to the study drug by the treating investigator. Clinical laboratory tests were obtained at regular intervals in all cohorts.
For safety monitoring, participants in all cohorts had periodic echocardiograms, which were assessed by a cardiologist. In the SAD and MAD cohorts, echocardiograms were also reviewed by an echocardiography core laboratory for PD assessments, as described below. In addition, participants in all cohorts were monitored with continuous 12-lead ECG recording using Holter monitors. For safety monitoring, a single 12-lead ECG was extracted at screening, pre-dose, and periodically throughout follow-up, and interpreted by the investigator. In the SAD, MAD, and CYP2D6-PM cohorts, cardiodynamic ECGs (triplicate 10-second, 12-lead ECG recordings) were obtained prior to the corresponding PK blood and ECG intervals quantitated by qualified readers.

In series [1] the test system is patients with symptomatic obstructive HCM (oHCM) receiving disopyramide. In words: Phase 2 trial in oHCM, Cohort 3: CK-274 in combination with disopyramide. Format: in vivo, human. An excerpt:
Cohort 3 included patients receiving disopyramide.
Body weight was ≥45 kg at screening; 4. […] Adequate acoustic windows for echocardiography; 6. Had LVOT-G during screening as follows for Cohorts 1 and 2: (a) resting gradient≥50 mmHg; or (b) resting gradient≥30 mmHg and <50 mmHg with post-Valsalva LVOT-G≥50 mmHg; or as follows for Cohort 3: persistent resting LVOT obstruction (≥30 mmHg) and provoked LVOT obstruction (≥50 mmHg); 7. Left ventricular ejection fraction (LVEF)≥60% at screening; 8. […] Taking stable doses of disopyramide for >4 weeks prior to screening (Cohort 3 only).
Patients up-titrated to Dose 2 if either of the following conditions were met on echocardiography: (1) resting LVOT-G≥30 mmHg and the biplane LVEF≥50%; or (2) resting LVOT-G<30 mmHg, post-Valsalva LVOT-G≥50 mmHg, and the biplane LVEF≥50%. Otherwise, the patient remains on Dose 1. If LVEF is <50% at Week 2, the patient was down-titrated to placebo.
Overall, treatment duration for each patient in the study was 10 weeks with an echocardiogram conducted 2 weeks after the last dose. Efficacy endpoints included resting and provoked LVOT gradients, NYHA class, and NT-proBNP.

Take `CCc1nc(-c2ccc3c(c2)CC[C@H]3NC(=O)c2cnn(C)c2)no1` [aficamten, (R)—N-(5-(5-ethyl-1,2,4-oxadiazol-3-yl)-2,3-dihydro-1H-inden-1-yl)-1-methyl-1H-pyrazole-4-carboxamide]: the “Serum chemistry, hematology, urinalysis findings” value with healthy adults (all Phase 1 cohorts) is given as “No clinically significant serum chemistry, hematology, or urinalysis findings”. For the same compound, in the series on healthy adults (all cohorts (exception: 1 placebo participant)), the “Increases in QTcF interval” value is recorded as at most 30 ms. The “QTcF at baseline or any assessment during the dosing interval” value in the series on healthy adults (all cohorts, exception of 2 individuals with baseline QTcF ≥440 ms) was at most 450 ms. The “QT effect in cardiodynamic assessments” value in the series on healthy adults (single or multiple doses) was “no evidence of a positive QT effect”. In addition, in series [1] (Cohort 3), the “Moderate adverse events recorded” value is listed as “six”, the “New York Heart Association functional class” value is reported as “improved in the majority of patients”, the “Patients whose LVEF fell below the safety threshold of 50%” value is “no patients” and the “Serious adverse events attributed to treatment” value is recorded as “no serious adverse events attributed to treatment”. Moreover, in series [1] (Cohort 3, 5, 10, 15 mg, 10 weeks), the “Average resting and post-Valsalva LVOT-G” value was “substantial reductions”. In addition, in series [1] (Cohort 3, 13 patients), the “Patients with AEs related to study drug (per investigator)” value is recorded as 2 (15.4) N (%), the “Patients with TEAEs leading to drug interruption or termination” value is listed as 0 N (%), the “Patients with TESAEs” value is recorded as 0 N (%) and the “Patients with at least one TEAE” value is given as 9 (69) N (%). In series [1] (Cohort 3, 13 patients), the “Patients with fatal TEAEs” value is given as 0 N (%) and the “TEAE of LVEF <50% (Core Lab)” value is listed as 0 N (%). In addition, the “Adverse events of asymptomatic atrial fibrillation” value in series [1] (Cohort 3, patient with known prior history) is on record as “One”. Besides, the “Effect on LVOT-G compared with Cohort 1 patients (same CK-274 dose)” value in series [1] (Cohort 3, patients treated with disopyramide) was “mostly attenuated”.
